{"source": "patent US20140357706A1", "about": "“Stearate Compounds” (THE UAB RESEARCH FOUNDATION, priority 2011, published 2014)", "key": {"3T3L1 preadipocytes": {"system": "3T3L1 preadipocytes", "assay": "Cell death and apoptosis of 3T3L1 preadipocytes (trypan blue, LDH, flow cytometry)", "assay_type": "cell-based, mouse", "settings": "50 μM, vs control", "procedure": "50 μM of stearate, oleate or linoleate was used to treat 3T3L1 cells as this concentration is centered within the normal range for non-esterified stearate in the plasma of humans. Stearate, oleate, or linoleate was loaded onto fatty acid free BSA according to the method reported by Spector and Hoak (Spector and Hoak, 1969). Briefly, stearate (0.5 g) was dissolved in chloroform (100 mL) and mixed well with 10 g diatomaceous earth in a 1 liter flask. The mixture was stirred and dried under nitrogen until powder. Fatty acid free BSA (1 g) was dissolved in 100 mL with DMEM without phenol red and mixed with 3 g of the stearate/diatomaceous earth mixture and stirred for 30 minutes. The stearate/BSA solution was filtered through a 0.45 μm filter, and adjusted to pH 7.4. The concentration of stearate in the solution was detected by use of a NEFA C kit. Oleic and linoleate were loaded in the same way. […] Before the treatment with fatty acid, 3T3L1 preadipocytes were grown to 100%, and were starved in 2% FBS medium for 24 hours.\nAfter treatment, 3T3L1 cells were harvested, washed with cold PBS, and then resuspended in 100 μl annexin-binding buffer (50 mM HEPES, 700 mM NaCl, 12.5 mM CaCl2, pH 7.4). Cell density was determined, and the cells were diluted to 10^6 cells. Then 5μL of Alex Fluo 488 annexin V and 1 μL propidium iodide (PI) were added. Cells were gently oscillated and incubated for 15 min at room temperature. After adding 400 μL of binding buffer to each tube, cells were kept on ice and analyzed by flow cytometry within 1 hour. Cells that stained positive for Alex Fluo 488 annexin V and negative for PI were considered to be apoptotic. Cells that stained positive for both Alex Fluo 488 annexin V and PI were considered either in the end stage of apoptosis, or necrosis. Cells that stained negative for both Alex Fluo 488 annexin V and PI were considered alive and not undergoing measurable apoptosis. A BD LSR II flow cytometer from Becton Dickinson was used in all flow experiments and the data were analyzed with BD FACSDiva™ software V.6.1.3.\nLactate dehydrogenase (LDH) release was measured using a cytotoxicity detection kit, according to the manufacture's protocol. After 3T3L1 cells were treated, 1 ml of cell culture medium was removed and centrifuged. The supernatant was retained for assaying. For determinations, 100 μl of LDH assay reagent was added to 100 μl of supernatant and incubated for 30 min at room temperature in the dark. Absorbance was measured at 490 nm. Background release from culture medium alone was subtracted before reporting. Maximum release was measured after adding 2% Triton X-100 to untreated cells.\nAfter treatment, 3T3L1 cells were harvested and stained with 0.4% trypan blue solution. Cells in the four corners of the grid were counted under a conventional bright field binocular microscope."}, "ERK": {"system": "ERK", "assay": "Immunoblot of phosphorylated ERK in Hs578T cells", "assay_type": "cell-based, human", "settings": "between 8 and 16 h post-stearate, sustained up to 24 h", "procedure": "(§1) The concentration of stearate used to treat the Hs578T cells was 50 μM. When EGF was used, the concentration was 1 nM EGF. Before the treatment with stearate or EGF, cells were first starved for 24-48 hours. Stearate was loaded onto fatty acid-free bovine serum albumin (BSA) according to the method reported by Spector et al. (13); briefly, stearate (0.5 g) was dissolved in chloroform (100 ml) and mixed well with 10 g diatomaceous earth in a 1 liter flask. The mixture was stirred and dried under nitrogen until powder. BSA is a physiological carrier of fatty acids and was used to avoid the introduction of organic solvents to solutions coming into contact with cells. Fatty acid-free BSA (1 g) was dissolved in 100 ml with Dulbecco's modified Eagle's medium without phenol red and mixed with 3 g of the stearate/diatomaceous earth mixture with stirring for 45 min. The stearate/BSA solution was filtered through a 0.45 μm filter, and adjusted to pH 7.4. The concentration of stearate in the solution was detected with the NEFA C Kit from Wako Chemicals GmbH (Neuss, Germany). All experimental data on Hs578T cells were controlled using fatty acid-free BSA control solutions that were put through the same preparatory procedure described for the stearate/BSA solution except for the fact that no fatty acid was added.\nCells were treated as described above, and lysed with lysis buffer. […]"}, "caspase-3": {"system": "caspase-3", "assay": "Caspase-3 activity assay in 3T3L1 preadipocytes", "assay_type": "cell-based, mouse", "settings": "48 hours treatment", "procedure": "50 μM of stearate, oleate or linoleate was used to treat 3T3L1 cells as this concentration is centered within the normal range for non-esterified stearate in the plasma of humans. Stearate, oleate, or linoleate was loaded onto fatty acid free BSA according to the method reported by Spector and Hoak (Spector and Hoak, 1969). Briefly, stearate (0.5 g) was dissolved in chloroform (100 mL) and mixed well with 10 g diatomaceous earth in a 1 liter flask. The mixture was stirred and dried under nitrogen until powder. Fatty acid free BSA (1 g) was dissolved in 100 mL with DMEM without phenol red and mixed with 3 g of the stearate/diatomaceous earth mixture and stirred for 30 minutes. The stearate/BSA solution was filtered through a 0.45 μm filter, and adjusted to pH 7.4. The concentration of stearate in the solution was detected by use of a NEFA C kit. Oleic and linoleate were loaded in the same way. All experimental data on 3T3L1 cells were confirmed using fatty acid free BSA control solutions that were put through the same preparatory procedure described except for the fact that no fatty acid was added. Before the treatment with fatty acid, 3T3L1 preadipocytes were grown to 100%, and were starved in 2% FBS medium for 24 hours.\nCaspase-3 activity was measured using the EnzCheck Capase-3 Activity Kit #1 according to the manufacturer's instructions (Molecular Probes Inc. Eugene, Oreg.)."}, "[1]": {"system": "p21^CIP1/WAF1, p27^KIP1, pCdk2", "assay": "Immunoblot of p21CIP1/WAF1, p27KIP1 and phosphorylated Cdk2 in Hs578T cells", "assay_type": "cell-based, human", "settings": "50 μM stearate, Hs578T", "procedure": "as §1\nCells were treated as described above, and lysed with lysis buffer. The supernatants of the lysates or the immunoprecipitates were loaded with Laemmli sample buffer on 10% sodium dodecyl sulfate-polyacrylamide gel electrophoresis gels after boiling at 100° C. for 5 min. Proteins were then transferred to a polyvinylidene difluoride membrane. The membranes were blocked overnight at 4° C. with blocking buffer containing 5% non-fat dried milk powder in Tris-buffered saline-T (25 mM Tris, 140 mM NaCl, 2.7 mM KCl, 0.05% Tween-20, pH 8.0), incubated with primary antibody in blocking buffer at room temperature for 1 hour and incubated with antirabbit or antimouse antibodies labeled with horseradish peroxidase (1:5000) in blocking buffer under the same conditions, and then washed three times for 10 min in Tris-buffered saline-T. The polyvinylidene difluoride membranes were washed and developed using enhanced chemiluminescence reagents."}}, "data": [{"smiles": "CCCCCCCCCCCCCCCCCC(=O)O", "note": "[stearate, Stearic acid]", "values": [{"measurement": "Percentage of dead cells (trypan blue)", "setting": "3T3L1 preadipocytes; 48 hour treatment", "result": "significantly increased"}, {"measurement": "Dead cells (flow cytometry)", "setting": "3T3L1 preadipocytes; 48 hours", "result": "increase"}, {"measurement": "Cytotoxicity (lactate dehydrogenase)", "setting": "3T3L1 preadipocytes; after 24 hours", "result": "significantly increased"}, {"measurement": "Apoptotic cells (flow cytometry)", "setting": "3T3L1 preadipocytes", "result": "significantly increased"}, {"measurement": "Phosphorylation of ERK", "setting": "ERK", "result": "increased"}, {"measurement": "Caspase-3 activity", "setting": "caspase-3", "result": "increased significantly"}, {"measurement": "Protein level of p21^CIP1/WAF1", "setting": "[1]", "result": "increases"}, {"measurement": "Protein level of p27^KIP1", "setting": "[1]", "result": "increases"}, {"measurement": "pCdk2", "setting": "[1]", "result": "decreased"}]}]}
